We go through one compound from patent US7344706B2, “UV absorber compositions comprising a hydroxyphenyltriazine compound” (Ciba Specialty Chemicals Corp., priority 2002, dated 2008).

Data set [1] is described as follows: Solubility in cosmetic oils. The class given is physicochemical. To be noted: percentages refer to weight.
Data set [2] is described as follows: Spectral properties (UV absorption). The class given is physicochemical. An excerpt:
Spectral Properties: [table]

The structures appear in SMILES notation. A value given as a limit tells only on which side of the number the result lay.

In the case of `CCCCC(CC)COc1ccc(-c2nc(-c3ccc(OC)cc3)nc(-c3ccc(OCC(CC)CCCC)cc3OCC(CC)CCCC)n2)c(O)c1` (centres unmarked) [Example 1, 2-((2,4-(2-ethyl-hexyloxy)-phenyl))-4-((2-hydroxy-4-(2-ethyl-hexyloxy)-phenyl))-6-(4-methoxyphenyl)-(1,3,5)-triazine], the “solubility in di-C12-C13alkylmalates” value in data set [1] (solvent di-C12-C13alkylmalates) is given as more than 25%. In data set [1] (solvent glyceryl-trioctanoate), this compound gave a solubility in glyceryl-trioctanoate of more than 30%. In addition, in data set [2], the ε is given as 50443 liters/(mol/cm) and the λmax stood at 322 nm. In data set [2] (in dioxane), the “E [1%, 1 cm] (in dioxane)” value was 681.62.
